Read-outs that look alike come from different tables or passages of the source. Where only a bound is given, the exact number is not on record here.

What all share (format): biochemical
The target in one experiment is T1, Lck (Homo sapiens, UniProt P06239).
T1 construct: Kinases are expressed as either kinase domains or full length constructs; made in house
Description: Kinase inhibition assay (33P transfer), Lck. The following applies: for IC50: read-out: Lck-1. From the text: (§1) The inhibitor compounds described herein are screened in the following manner. Kinases suitable for use in the following protocol to determine kinase activity of the compounds described herein include, -but are not limited to: Lck, Lyn, Src, Fyn, Syk, Zap-70, Itk, Tec, Btk, EGFR, ErbB2, Kdr, Flt-1, Flt-3, Tek, c-Met, InsR, and AKT.
(§2) Kinases are expressed as either kinase domains or full length constructs fused to glutathione S-transferase (GST) or polyHistidine tagged fusion proteins in either E. colior Baculovirus-High Five expression systems. […] In some instances, kinases are co-expressed or mixed with purified or partially purified regulatory polypeptides prior to measurement of activity.
(§3) Briefly, The transfer of ^33PO4 from ATP to the synthetic substrates poly(Glu, Tyr) 4:1 or poly(Arg, Ser) 3:1 attached to the bioactive surface of microtiter plates serves as the basis to evaluate enzyme activity. After an incubation period, the amount of phosphate transferred is measured by first washing the plate with 0.5% phosphoric acid, adding liquid scintillant, and then counting in a liquid scintillation detector.

In the next experiment the target is T2, Zap-70 (Homo sapiens, UniProt P43403).
T2 construct: Kinases are expressed as either kinase domains or full length constructs; made in house
T2 sequence (P43403 1-619): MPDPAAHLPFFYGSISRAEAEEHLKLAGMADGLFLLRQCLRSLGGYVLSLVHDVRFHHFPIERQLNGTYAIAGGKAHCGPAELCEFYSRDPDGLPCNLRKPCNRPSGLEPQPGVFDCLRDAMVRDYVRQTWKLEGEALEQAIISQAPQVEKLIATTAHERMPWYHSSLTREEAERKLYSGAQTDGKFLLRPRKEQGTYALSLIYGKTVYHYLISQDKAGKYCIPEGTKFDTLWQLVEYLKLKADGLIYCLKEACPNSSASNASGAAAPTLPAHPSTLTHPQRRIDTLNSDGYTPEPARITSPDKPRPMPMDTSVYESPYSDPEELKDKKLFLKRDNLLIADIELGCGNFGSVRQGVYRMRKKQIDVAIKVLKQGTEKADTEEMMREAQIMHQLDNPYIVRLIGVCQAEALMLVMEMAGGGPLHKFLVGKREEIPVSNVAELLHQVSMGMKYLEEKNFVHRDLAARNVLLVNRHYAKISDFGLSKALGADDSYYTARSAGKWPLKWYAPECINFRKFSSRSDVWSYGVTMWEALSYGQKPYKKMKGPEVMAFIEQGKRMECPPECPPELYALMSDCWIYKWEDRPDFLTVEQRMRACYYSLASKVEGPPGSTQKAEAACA
Description: Kinase inhibition assay (33P transfer), Zap-70. The following applies: for IC50: read-out: Zap-1.
From the text: as §1, §2, §3

Another experiment deals with T3, c-Met (Homo sapiens, UniProt P08581).
T3 construct: Kinases are expressed as either kinase domains or full length constructs; made in house
Description: Kinase inhibition assay (33P transfer), c-Met. The following applies: Table 2, kinase inhibition class; for IC50: read-out: Met-1.
From the text: as §1
(§4) Kinases are expressed as either kinase domains or full length constructs fused to glutathione S-transferase (GST) or polyHistidine tagged fusion proteins in either E. colior Baculovirus-High Five expression systems. They are purified to near homogeneity by affinity chromatography essentially as previously described (Lehr et al., 1996; Gish et al., 1995). In some instances, kinases are co-expressed or mixed with purified or partially purified regulatory polypeptides prior to measurement of activity.
as §3, with “Kinase activity and inhibition are measured essentially by established protocols (Braunwalder et al., 1996). Briefly,” for “Briefly,”, “detector. The IC50 is determined by the concentration of compound that causes a 50% reduction in the amount of […] incorporated onto the substrate bound to the plate.” for “detector.”

Another experiment deals with T4, EGFR (Homo sapiens, UniProt P00533).
T4 construct: Kinases are expressed as either kinase domains or full length constructs; made in house
Description: Kinase inhibition assay (33P transfer), EGFR. The following applies: Table 2, kinase inhibition class; for IC50: read-out: EGFR-1.
From the text: as §1, §4
as §3, with “Kinase activity and inhibition are measured essentially by established protocols (Braunwalder et al., 1996). Briefly,” for “Briefly,”, “detector. The IC50 is determined by the concentration of compound that causes a 50% reduction in the amount of […] incorporated onto the substrate bound to the plate.” for “detector.”

Another experiment deals with T5, Itk (Homo sapiens, UniProt Q08881).
T5 construct: Kinases are expressed as either kinase domains or full length constructs; made in house
T5 sequence (Q08881 1-620): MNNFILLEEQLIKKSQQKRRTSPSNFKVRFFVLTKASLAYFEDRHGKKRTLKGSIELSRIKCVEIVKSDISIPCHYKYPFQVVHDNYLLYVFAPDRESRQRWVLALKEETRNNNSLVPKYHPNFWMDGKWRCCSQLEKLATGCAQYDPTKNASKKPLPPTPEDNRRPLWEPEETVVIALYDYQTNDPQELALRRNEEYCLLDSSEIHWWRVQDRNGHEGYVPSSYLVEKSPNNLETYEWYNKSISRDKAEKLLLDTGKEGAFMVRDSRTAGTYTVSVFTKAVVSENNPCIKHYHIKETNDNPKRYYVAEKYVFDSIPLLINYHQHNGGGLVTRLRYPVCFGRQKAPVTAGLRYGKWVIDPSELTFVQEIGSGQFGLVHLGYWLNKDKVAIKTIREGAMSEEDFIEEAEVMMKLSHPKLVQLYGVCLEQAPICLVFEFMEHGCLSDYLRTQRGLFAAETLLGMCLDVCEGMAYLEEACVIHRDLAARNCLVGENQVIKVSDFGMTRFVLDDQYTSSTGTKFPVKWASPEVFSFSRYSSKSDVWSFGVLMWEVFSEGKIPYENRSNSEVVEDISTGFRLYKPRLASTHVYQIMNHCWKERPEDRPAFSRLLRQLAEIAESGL
Description: Kinase inhibition assay (33P transfer), Itk. The note with it: for IC50: read-out: Itk-1.
From the text: as §1, §4
as §3, with “Kinase activity and inhibition are measured essentially by established protocols (Braunwalder et al., 1996). Briefly,” for “Briefly,”, “detector. The IC50 is determined by the concentration of compound that causes a 50% reduction in the amount of […] incorporated onto the substrate bound to the plate.” for “detector.”

Another experiment deals with T6, Kdr (Homo sapiens, UniProt P35968).
T6 construct: Kinases are expressed as either kinase domains or full length constructs; made in house
In words: Kinase inhibition assay (33P transfer), Kdr. The following applies: for IC50: read-out: KDR-1.
From the text: as §1, §2, §3

Another experiment addresses T7, AKT (Homo sapiens, UniProt Q9Y243).
T7 construct: Kinases are expressed as either kinase domains or full length constructs; made in house
In words: Kinase inhibition assay (33P transfer), AKT. The note with it: Table 2, kinase inhibition class; for IC50: read-out: AKT3-1.
From the text: as §1, §2, §3

T7 sequence (Q9Y243 whole entry, the tested form may be a part): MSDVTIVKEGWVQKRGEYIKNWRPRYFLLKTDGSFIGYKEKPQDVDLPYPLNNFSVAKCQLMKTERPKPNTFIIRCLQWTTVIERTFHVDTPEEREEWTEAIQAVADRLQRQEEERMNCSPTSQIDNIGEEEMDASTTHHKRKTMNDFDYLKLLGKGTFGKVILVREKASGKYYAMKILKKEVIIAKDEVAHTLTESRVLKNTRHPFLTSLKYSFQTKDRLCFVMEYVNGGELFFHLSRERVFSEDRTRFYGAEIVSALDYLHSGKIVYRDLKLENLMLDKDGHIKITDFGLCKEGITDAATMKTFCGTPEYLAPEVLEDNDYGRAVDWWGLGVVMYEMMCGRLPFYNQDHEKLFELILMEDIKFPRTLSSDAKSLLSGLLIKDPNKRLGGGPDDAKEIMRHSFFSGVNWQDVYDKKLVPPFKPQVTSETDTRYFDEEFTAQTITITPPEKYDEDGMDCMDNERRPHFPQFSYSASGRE
T3 sequence (P08581 25-1390): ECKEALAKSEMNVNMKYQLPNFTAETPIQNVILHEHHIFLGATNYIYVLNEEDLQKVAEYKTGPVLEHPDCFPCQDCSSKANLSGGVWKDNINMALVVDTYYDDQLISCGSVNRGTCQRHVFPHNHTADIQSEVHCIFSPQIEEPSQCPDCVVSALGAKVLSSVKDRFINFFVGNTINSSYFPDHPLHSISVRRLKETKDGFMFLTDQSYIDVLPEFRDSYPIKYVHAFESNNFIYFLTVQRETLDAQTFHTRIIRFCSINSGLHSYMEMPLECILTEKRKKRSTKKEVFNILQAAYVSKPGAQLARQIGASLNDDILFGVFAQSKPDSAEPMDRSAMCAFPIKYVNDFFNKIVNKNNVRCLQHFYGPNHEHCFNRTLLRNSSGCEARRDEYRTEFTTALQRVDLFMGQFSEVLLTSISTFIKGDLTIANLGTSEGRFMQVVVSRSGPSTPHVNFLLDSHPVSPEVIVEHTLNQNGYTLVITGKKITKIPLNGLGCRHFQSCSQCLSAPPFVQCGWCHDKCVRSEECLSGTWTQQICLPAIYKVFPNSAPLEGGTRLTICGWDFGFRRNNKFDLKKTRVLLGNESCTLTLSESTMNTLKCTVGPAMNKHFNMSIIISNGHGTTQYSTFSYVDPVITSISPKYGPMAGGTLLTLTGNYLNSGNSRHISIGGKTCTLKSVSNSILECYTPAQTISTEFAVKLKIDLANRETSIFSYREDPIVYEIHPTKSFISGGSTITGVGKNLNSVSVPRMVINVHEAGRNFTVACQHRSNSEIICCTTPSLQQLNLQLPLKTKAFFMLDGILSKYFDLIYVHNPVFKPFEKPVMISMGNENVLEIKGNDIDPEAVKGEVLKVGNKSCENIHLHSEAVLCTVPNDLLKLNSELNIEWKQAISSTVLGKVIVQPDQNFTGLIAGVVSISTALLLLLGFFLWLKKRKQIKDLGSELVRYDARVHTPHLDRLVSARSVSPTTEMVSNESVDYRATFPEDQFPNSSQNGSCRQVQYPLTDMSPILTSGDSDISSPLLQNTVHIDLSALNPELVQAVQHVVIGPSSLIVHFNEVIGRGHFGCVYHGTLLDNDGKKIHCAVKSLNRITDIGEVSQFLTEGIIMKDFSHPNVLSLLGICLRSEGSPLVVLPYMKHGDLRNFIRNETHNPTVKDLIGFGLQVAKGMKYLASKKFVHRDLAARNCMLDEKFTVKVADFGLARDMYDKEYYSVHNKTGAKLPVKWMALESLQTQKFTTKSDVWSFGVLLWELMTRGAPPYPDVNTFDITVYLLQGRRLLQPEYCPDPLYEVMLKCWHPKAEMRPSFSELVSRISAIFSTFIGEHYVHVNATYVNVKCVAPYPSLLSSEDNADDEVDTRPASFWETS
T1 sequence (P06239 whole entry, species assumed, the tested form may be a part): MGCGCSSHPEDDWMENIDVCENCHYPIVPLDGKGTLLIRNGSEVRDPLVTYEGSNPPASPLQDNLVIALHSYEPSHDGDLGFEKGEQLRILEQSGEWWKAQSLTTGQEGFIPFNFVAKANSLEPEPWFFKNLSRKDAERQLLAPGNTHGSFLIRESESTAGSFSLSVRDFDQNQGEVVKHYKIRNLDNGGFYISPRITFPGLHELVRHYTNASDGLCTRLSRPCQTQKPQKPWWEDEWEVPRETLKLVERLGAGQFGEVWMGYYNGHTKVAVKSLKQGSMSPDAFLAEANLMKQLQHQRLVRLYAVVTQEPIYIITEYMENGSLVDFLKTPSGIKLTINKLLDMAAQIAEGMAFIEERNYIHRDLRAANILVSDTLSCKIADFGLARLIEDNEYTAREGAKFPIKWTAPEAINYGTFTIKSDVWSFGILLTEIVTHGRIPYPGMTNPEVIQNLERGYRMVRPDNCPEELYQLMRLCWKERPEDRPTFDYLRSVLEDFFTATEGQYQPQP
T6 sequence (P35968 20-1356, species assumed): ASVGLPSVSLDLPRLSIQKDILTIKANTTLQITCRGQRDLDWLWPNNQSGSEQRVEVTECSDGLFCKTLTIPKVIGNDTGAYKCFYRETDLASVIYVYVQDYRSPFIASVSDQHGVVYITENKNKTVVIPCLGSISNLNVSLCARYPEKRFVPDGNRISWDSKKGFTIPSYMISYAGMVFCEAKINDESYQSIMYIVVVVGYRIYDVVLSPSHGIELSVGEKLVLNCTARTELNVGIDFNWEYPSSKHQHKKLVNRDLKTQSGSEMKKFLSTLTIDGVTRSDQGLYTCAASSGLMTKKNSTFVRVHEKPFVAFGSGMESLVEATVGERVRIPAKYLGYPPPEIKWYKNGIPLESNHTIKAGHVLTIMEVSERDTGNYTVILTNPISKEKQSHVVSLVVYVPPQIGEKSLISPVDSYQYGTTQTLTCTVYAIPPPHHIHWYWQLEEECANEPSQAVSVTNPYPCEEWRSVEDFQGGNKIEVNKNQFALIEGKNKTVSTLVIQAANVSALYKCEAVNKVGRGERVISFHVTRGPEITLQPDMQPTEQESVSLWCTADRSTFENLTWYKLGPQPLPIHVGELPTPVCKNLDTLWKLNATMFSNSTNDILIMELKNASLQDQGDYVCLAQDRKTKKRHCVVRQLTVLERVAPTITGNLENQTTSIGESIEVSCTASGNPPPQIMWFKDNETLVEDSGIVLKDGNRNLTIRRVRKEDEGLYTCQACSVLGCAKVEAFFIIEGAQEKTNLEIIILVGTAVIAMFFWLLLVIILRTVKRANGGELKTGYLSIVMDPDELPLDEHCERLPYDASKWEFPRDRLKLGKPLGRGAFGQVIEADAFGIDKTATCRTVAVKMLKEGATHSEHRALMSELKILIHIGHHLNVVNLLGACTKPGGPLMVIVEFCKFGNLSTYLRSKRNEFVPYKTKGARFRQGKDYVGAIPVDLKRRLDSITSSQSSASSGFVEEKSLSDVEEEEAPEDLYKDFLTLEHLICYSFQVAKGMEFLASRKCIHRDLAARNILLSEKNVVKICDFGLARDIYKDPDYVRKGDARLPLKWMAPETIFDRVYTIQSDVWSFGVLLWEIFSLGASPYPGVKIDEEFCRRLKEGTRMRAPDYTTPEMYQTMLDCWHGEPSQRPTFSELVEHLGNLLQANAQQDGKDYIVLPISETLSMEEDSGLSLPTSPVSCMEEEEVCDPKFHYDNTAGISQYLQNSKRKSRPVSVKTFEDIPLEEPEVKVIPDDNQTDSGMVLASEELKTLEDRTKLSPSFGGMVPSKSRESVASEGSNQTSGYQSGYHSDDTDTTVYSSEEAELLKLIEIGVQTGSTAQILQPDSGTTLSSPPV
T4 sequence (P00533 25-1210, species assumed): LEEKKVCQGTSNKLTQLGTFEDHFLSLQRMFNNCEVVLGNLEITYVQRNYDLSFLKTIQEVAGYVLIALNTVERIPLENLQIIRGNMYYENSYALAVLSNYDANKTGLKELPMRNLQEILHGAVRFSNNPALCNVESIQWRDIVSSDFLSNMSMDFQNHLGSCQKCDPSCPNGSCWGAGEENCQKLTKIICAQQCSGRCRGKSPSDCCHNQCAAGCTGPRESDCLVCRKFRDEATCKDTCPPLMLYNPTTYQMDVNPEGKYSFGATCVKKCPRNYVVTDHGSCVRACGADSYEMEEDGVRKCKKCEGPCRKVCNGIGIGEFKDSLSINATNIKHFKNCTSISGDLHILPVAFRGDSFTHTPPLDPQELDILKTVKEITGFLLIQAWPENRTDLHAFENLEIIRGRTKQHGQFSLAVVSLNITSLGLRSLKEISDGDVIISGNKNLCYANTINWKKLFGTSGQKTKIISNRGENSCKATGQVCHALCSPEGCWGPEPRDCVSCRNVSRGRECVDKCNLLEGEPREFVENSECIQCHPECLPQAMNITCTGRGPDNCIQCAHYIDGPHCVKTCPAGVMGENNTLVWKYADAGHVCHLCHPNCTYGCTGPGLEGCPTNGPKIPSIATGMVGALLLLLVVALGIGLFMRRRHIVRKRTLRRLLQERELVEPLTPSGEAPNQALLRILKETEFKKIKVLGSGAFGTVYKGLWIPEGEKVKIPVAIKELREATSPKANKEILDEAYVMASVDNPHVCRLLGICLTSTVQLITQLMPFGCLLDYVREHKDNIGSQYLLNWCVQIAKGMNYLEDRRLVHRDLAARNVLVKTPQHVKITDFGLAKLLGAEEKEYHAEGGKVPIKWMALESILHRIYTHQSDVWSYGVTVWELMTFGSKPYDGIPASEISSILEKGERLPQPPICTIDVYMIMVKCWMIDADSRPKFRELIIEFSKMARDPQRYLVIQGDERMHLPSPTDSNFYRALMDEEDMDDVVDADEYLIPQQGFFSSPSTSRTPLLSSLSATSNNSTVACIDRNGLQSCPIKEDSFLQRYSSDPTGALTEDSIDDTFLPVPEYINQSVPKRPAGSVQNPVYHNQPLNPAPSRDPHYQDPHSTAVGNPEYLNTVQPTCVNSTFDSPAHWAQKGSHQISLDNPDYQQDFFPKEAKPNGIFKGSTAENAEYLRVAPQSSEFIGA

On to `COc1cc(Nc2ncnc(Nc3[nH]ncc3-c3cccc(Cl)c3)n2)cc(OC)c1OC` [Compound 999], for which the IC50 on Lck, on Zap-70, on c-Met, at EGFR, at Itk and on Kdr was greater than 9.91 µM in each case. In addition, the IC50 at AKT is greater than 9.91 µM.

For `O=c1[nH]c2ccccc2n1-c1ncnc(Nc2cccc(S(=O)(=O)CCO)c2)n1` [Compound 681], the IC50 on Lck was greater than 10.9 µM; at Zap-70, greater than 10.9 µM; on c-Met, greater than 10.9 µM; at EGFR it was greater than 10.9 µM; on Itk it was greater than 10.9 µM; at Kdr it was 0.97 to 5.82 µM. For the same compound, the IC50 at AKT is greater than 10.9 µM.

As to `COc1cc(Nc2ncnc(-c3ccc(N(C)C)nc3)n2)cc(OC)c1OC` [Compound 449], the IC50 at Lck (Table 3), at Zap-70 (Table 3), on c-Met, on EGFR, on Itk (Table 3) and at Kdr (Table 3) was greater than 11.8 µM in each case. At AKT, the IC50 is greater than 11.8 µM.

Turning to `COc1cc(Nc2ncnc(-n3c(N)nc4ccccc43)n2)cc(OC)c1` [Compound 477], the IC50 on Lck is 1.1 to 6.6 µM; on Zap-70, greater than 12.4 µM; at c-Met it was greater than 12.4 µM; on EGFR, greater than 12.4 µM; on Itk it was 1.1 to 6.6 µM; at Kdr it was less than 1.1 µM. Besides, the IC50 on AKT is greater than 12.4 µM.

`O=c1[nH]c2ccccc2n1-c1ncnc(Nc2cccc(OC(F)(F)F)c2)n1` [Compound 461]: the IC50 on Lck (Table 3), on Zap-70 (Table 3), on c-Met, on EGFR, on Itk (Table 3) and at Kdr (Table 3) was greater than 11.6 µM each time. Also, at AKT, the IC50 is greater than 11.6 µM.

`COc1cc(Nc2ncnc(-c3cccnc3NCCN3CCCCC3)n2)cc(OC)c1OC` [Compound 1079]: the IC50 at Lck, on Zap-70, at c-Met, on EGFR, at Itk and on Kdr was greater than 9.67 µM in each case. In addition, the IC50 on AKT is greater than 9.67 µM.

Take `CN(C)c1ccc(Nc2ncnc(-n3c(N)nc4ccccc43)n2)cc1` [Compound 527]: the IC50 on Lck is 1.15 to 6.93 µM; on Zap-70 it was greater than 13 µM; at c-Met, 1.15 to 6.93 µM; on EGFR, 6.93 to 10.1 µM; on Itk, 1.15 to 6.93 µM; on Kdr, less than 1.15 µM. The IC50 on AKT is greater than 13 µM.

As to `O=c1[nH]c2ccccc2n1-c1ncnc(Nc2cc(Cl)cc(Cl)c2)n1` [Compound 503], the IC50 is 9.38 to 12.1 µM on Lck; 9.38 to 12.1 µM at Zap-70; greater than 12.1 µM on c-Met; greater than 12.1 µM at EGFR; greater than 12.1 µM at Itk; greater than 12.1 µM at Kdr. The IC50 on AKT is greater than 12.1 µM.

Turning to `COc1cc(Nc2ncnc(-c3ccc(N4CCNCC4)nc3)n2)cc(OC)c1OC` [Compound 436], the IC50 at Lck (Table 3) was greater than 10.6 µM; on Zap-70 (Table 3), greater than 10.6 µM; at c-Met, greater than 10.6 µM; on EGFR it was 8.26 to 10.6 µM; on Itk (Table 3), greater than 10.6 µM; at Kdr (Table 3), 8.26 to 10.6 µM. The IC50 at AKT was greater than 10.6 µM.

As to `COc1cc(Nc2ncnc(-c3ccc(N4CCOCC4)nc3)n2)cc(OC)c1OC` [Compound 434], the IC50 on Lck (Table 3), on Zap-70 (Table 3), at c-Met, at EGFR, at Itk (Table 3) and at Kdr (Table 3) was greater than 10.6 µM each time. Moreover, the IC50 at AKT is greater than 10.6 µM.

Take `COc1ccc(-c2cn[nH]c2Nc2ncnc(Nc3cc(OC)c(OC)c(OC)c3)n2)cc1OC` [Compound 470]: the IC50 was 5.01 to 7.3 µM at Lck; greater than 9.38 µM on Zap-70; greater than 9.38 µM on c-Met; 7.3 to 9.38 µM at EGFR; 0.834 to 5.01 µM at Itk; greater than 9.38 µM at Kdr. Besides, the IC50 at AKT is greater than 9.38 µM.

Consider `COc1cc(Nc2ncnc(-c3ccnc(NCCCN)c3)n2)cc(OC)c1OC` [Compound 45], for which the IC50 at Lck (Table 3) is 0.972 to 5.83 µM; on Zap-70 (Table 3), greater than 10.9 µM; at c-Met, greater than 10.9 µM; at EGFR it was greater than 10.9 µM; at Itk (Table 3), greater than 10.9 µM; at Kdr (Table 3), greater than 10.9 µM. In addition, the IC50 at AKT was greater than 10.9 µM.

`CC(C)(C)c1cc(Nc2ncnc(Nc3ccc(CO)cc3)n2)[nH]n1` [Compound 501]: the IC50 on Lck is 1.18 to 7.07 µM; on Zap-70, greater than 13.3 µM; on c-Met, less than 1.18 µM; at EGFR, 1.18 to 7.07 µM; on Itk, 1.18 to 7.07 µM; on Kdr, 1.18 to 7.07 µM. Also, the IC50 at AKT is greater than 13.3 µM.

Turning to `COc1cc(Nc2ncnc(-c3ccc(NCc4ccccc4)nc3)n2)cc(OC)c1OC` [Compound 471], the IC50 at Lck, at Zap-70, on c-Met, at EGFR, at Itk and on Kdr was greater than 10.1 µM throughout. For the same compound, the IC50 on AKT is greater than 10.1 µM.

Turning to `COc1cc(Nc2ncnc(-c3cccnc3NCCN)n2)cc(OC)c1OC` [Compound 1074], at Lck, the Lck-1 entry is “C (C>2.4 and <3.5 ug/mL)”. At Zap-70, the Zap-1 result was “E (E>4.5 ug/mL)”. Moreover, the Met-1 entry at c-Met is reported as “E (E>4.5 ug/mL)”. The EGFR-1 entry on EGFR is given as “E (E>4.5 ug/mL)”. Further, the Itk-1 result on Itk was “E (E>4.5 ug/mL)”. Moreover, at Kdr, the KDR-1 entry is “B (B>0.4 and <2.4 ug/mL)”. For the same compound, on AKT, the AKT3-1 entry is recorded as “E (E>4.5 ug/mL)”.

On to `O=c1[nH]c2ccccc2n1-c1ncnc(Nc2ccccc2)n1` [Compound 482], for which the IC50 at Lck is greater than 14.8 µM; on Zap-70, greater than 14.8 µM; on c-Met it was greater than 14.8 µM; at EGFR, greater than 14.8 µM; at Itk, greater than 14.8 µM; on Kdr, less than 1.31 µM. Moreover, the IC50 on AKT is greater than 14.8 µM.

For the origin of these results see patent publication US7074789B2, “Kinase inhibitors” (Amgen Inc., priority 1999, dated 2006).
